In experiment [1] the target is T1, Acetylcholinesterase (Homo sapiens, UniProt P22303).
Description: Inhibition of Acetylcholinesterase
Experiment [2] has as its target Cholinesterase (Homo sapiens, UniProt P06276).
Description: Inhibition of Butyrylcholinesterase
In experiment [3] the target is T1, Acetylcholinesterase. The source holds these as a separate data set.
Description: Competitive inhibition constant for Acetylcholinesterase

The text below walks through data of ChEMBL document CHEMBL1145289, “Propidium-based polyamine ligands as potent inhibitors of acetylcholinesterase and acetylcholinesterase-induced amyloid-beta aggregation” (J Med Chem, 2005).

For orientation: pIC50 means the IC50 on a negative log10 scale, so that one unit is a factor of ten. A low value points to a high IC50. The pKi is the negative decadic logarithm of the Ki, by convention in mol/L. Higher therefore signals a small Ki.

Each structure is given as a SMILES string. pIC50, pKi: −log10 of the molar value.

Cholinesterase, sequence (P06276 whole entry): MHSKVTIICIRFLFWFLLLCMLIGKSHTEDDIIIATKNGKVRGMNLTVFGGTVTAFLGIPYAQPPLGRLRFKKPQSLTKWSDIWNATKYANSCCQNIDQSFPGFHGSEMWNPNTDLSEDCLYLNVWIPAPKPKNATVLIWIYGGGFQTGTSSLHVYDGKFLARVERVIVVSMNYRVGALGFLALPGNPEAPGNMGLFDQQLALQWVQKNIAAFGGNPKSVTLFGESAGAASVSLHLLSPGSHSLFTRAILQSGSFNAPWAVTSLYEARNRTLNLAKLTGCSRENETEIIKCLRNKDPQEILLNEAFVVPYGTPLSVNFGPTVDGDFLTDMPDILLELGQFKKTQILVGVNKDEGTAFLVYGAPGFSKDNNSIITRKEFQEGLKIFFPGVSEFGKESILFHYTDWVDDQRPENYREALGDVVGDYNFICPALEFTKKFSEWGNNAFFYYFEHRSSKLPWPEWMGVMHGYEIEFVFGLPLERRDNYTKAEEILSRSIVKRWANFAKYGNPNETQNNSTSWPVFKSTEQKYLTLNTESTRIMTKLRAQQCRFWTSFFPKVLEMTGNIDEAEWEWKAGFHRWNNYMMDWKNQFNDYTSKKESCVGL
T1 sequence (P22303 whole entry): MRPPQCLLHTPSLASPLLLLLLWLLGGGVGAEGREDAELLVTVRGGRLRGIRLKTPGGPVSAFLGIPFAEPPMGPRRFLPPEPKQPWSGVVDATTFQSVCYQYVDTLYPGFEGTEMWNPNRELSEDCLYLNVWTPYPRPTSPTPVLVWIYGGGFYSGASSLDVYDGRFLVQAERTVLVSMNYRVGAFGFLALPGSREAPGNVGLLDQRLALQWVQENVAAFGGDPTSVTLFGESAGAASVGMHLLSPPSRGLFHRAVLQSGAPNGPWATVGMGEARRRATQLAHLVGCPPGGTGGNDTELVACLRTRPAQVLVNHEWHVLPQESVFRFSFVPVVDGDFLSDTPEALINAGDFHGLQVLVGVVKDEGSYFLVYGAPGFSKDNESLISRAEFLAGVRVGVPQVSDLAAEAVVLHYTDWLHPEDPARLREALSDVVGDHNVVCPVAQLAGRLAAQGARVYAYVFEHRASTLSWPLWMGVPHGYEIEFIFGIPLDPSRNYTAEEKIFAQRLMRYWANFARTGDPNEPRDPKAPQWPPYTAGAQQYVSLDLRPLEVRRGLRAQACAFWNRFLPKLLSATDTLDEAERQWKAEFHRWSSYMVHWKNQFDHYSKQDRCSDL

In the case of `COc1ccccc1CN(C)CCCN(C)CCCNCCC[n+]1c(-c2ccccc2)c2cc(N)ccc2c2ccc(N)cc21`, the pIC50 was 6.02 in experiment [1] and 5.66 in experiment [2]. The same compound gave a pKi in experiment [3] of 6.05.

The compound `COc1ccccc1CN(C)CCCCCC(=O)N(C)CCCCCCCCN(C)C(=O)CCCCCN(C)Cc1ccccc1OC` [CAPROCTAMINE] showed a pIC50 in experiment [2] of 4.94.

With `Nc1ccc2c(c1)c(-c1ccccc1)[n+](CCCNCCCNCCCNc1c3c(nc4ccccc14)CCCC3)c1cc(N)ccc21`, the pIC50 in experiment [1] is 8.81; in experiment [2], 7.20. In experiment [3], this compound gave a pKi of 8.83.
